In US20230413823A1, “HYPERLOADED YEAST CELL WALL PARTICLE AND USES THEREOF” (priority 2022, published 2023):
Values after ≈ are worked out from the molar mass of the structure shown. Where two headings read alike, the source gives them in different places.

Columns and labels:
[1] = Payload encapsulation (loading) efficiency in YPs by HPLC; type: physicochemical
Method: Samples of YP-GET (10 μL, 10 mg YP/mL) were stained with Nile red (2 μL, 0.1 mg/mL) and fluorescein labeled concanavalin-A (FITC ConA, 2 μL, 0.1 mg/mL) to qualitatively assess loading by the fluorescence microscopy of the encapsulated fluorescent terpene-Nile red complex in the FITC ConA labeled yeast particle. Nile red was imaged using a rhodamine (red) filter (maxi-mum excitation/emission wavelengths at 550/570 nm) and FITC-ConA was imaged with a green filter at 490/520 nm. Microscopy images were collected with an Olympus BX60 upright compound fluorescent microscope. YP GET samples (100 mg) were centrifuged to collect excess liquid (free terpene and water) and the pellet fraction was resuspended in 10 mL of 90% methanol-10% water to extract encapsulated terpenes. Terpenes were quantified by HPLC operated with 32 KARAT™ software version 7.0 (Beckman Coulter, Inc, Brea, CA, USA), using a Waters […]® C18 column (3.5 μm, 4.6×150 mm) with acetonitrile:water 50:50 as mobile phase, flow rate at 1 mL/min, injection volume of 10 μL, and terpene detection at 254 nm. […] The quantification of terpenes was done by measuring the peak area and interpolating the concentration using a calibration curve obtained with terpene standards.
Terpenes were mixed with water and YPs from two different manufacturers and incubated at room temperature for 48 hours and encapsulation efficiency of terpenes in YPs was measured as described above after incubation at room temperature for 2 days.
(§1) Dry YPs from two different manufacturers were mixed with water (0.5mL water/g YP) for 30 minutes to obtain a uniform hydrated YP suspension. Limonene was added to the YP sample and incubated at 40° C. for one week to allow for complete limonene loading. Loading efficiency was quantitatively measured by the basic HPLC procedure described above using assay details listed in Table 10 and qualitatively assessed by fluorescence microscopy as described before. Particle diameter was measured as described before.
as §1, with “(0.5 to 2.5 mL” for “(0.5mL”, “Limonene was added to the YP sample and incubated at 40° C. for one week to allow for complete limonene loading.” left out, “12” for “10”, “above.” for “before.”
as §1, with “(2.5 to 5 mL” for “(0.5mL”, “Triallate” for “Limonene”, “3 to 7 days” for “one week”, “complete” for “complete limonene”, “14” for “10”
Dry GLPs/YPs were mixed with water (0.5 to 4.5 mL water g GLP/YP) for 30 minutes to obtain a uniform hydrated YP suspension. THC was added to the GLP/YP sample and incubated at 23° C. for 48 hours to allow for complete THC loading. Loading efficiency was quantitatively measured by the basic HPLC procedure described above using assay details listed in Table 16 and qualitatively assessed by fluorescence microscopy as described above. Particle diameter was measured as described above.
Two different kinds of dry YPs were mixed with water (0.5 to 4.5 mL water/g YP) for 30 minutes to obtain a uniform hydrated YP suspension. λCy was added to the YP sample and incubated at 55° C. for one week to allow for complete λCy loading. Loading efficiency was quantitatively measured by the basic HPLC procedure described above using assay details listed in Table 18 and qualitatively assessed by fluorescence microscopy as described before. Particle diameter was measured as described before.
PTP is highly soluble in acetone and dichloromethane. […]

[2] = cited from earlier work
[3] = cited from earlier work; for water/octanol partition coefficient (log P): chemical and physical properties tables
[4] = Table 21, cited from earlier work
[5] = Solubility in organic loading and leave-in solvents
S. cerevisiae = details: cited from earlier work
C. albicans = details: cited from earlier work
H. pylori = details: concentration of 2 mg/L; cited from earlier work
[6] = Payload release from YPs upon dilution in water (HPLC of supernatant); type: physicochemical
Method: Sustained payload release from YPs occurs by payload diffusion out of the particles and is a function of the payload's solubility in water. […] Samples were incubated at room temperature. Amount of triallate released from the particles into the supernatant was quantified by HPLC as described before.
λCy-YP samples loaded at a w/w λCy:YP ratio of 1:1 were diluted in water ±surfactant (1% w/v IGEPAL) at target λCy concentrations of 0.001, 0.01, 0.1 and 1 mg/mL. Samples were incubated at room temperature for 3 hours. Supernatant was collected to measure amount of λCy released from the particles. The amount of λCy was quantified by HPLC as described above.
PTP-YP samples prepared without leave in solvent or with leave-in solvent GET424 or DMDA. Samples carrying PTP:YP weight ratio 1:1, PTP:GET:YP ratio of 1:1:1 or PTP:DMDA:YP ratio of 1:1:1 were diluted in water at a target PTP concentration of 0.001, 0.01, 0.1 and 1 mg/mL. Samples were incubated at room temperature. Supernatant was collected to measure amount of payload released from the particles.

physchem = details: organic solvent or mixture
Candida albicans SC5134 = experiment: Antimicrobial microplate assay (MIC 75%); type: cell-based
Method: The antimicrobial activity of YP-GET was evaluated using a modified published microplate assay procedure (Sultanbawa, Y.; Cusack, A.; Currie, M.; Davis, C. An Innovative Microplate Assay to Facilitate the Detection of Antimicrobial 538Activity in Plant Extracts. J. Rapid Meth. Aut. Mic. 2009, 17 (4), 519-534. haps://doi.org/10.111/j.1745-4581.2009.00187.x). Samples of YP-GET were suspended in 100 μL of growth medium (LB 395was used in antibacterial assays and YPD in antifungal assays) and added to the first row 396 (Row A) of a 96-well plate (all wells in the 96-well plate contain additional 100 μL medium). Serial dilutions (1:1) were performed by transferring 100 μL from Row A to Row B, etc., and finally removing 100 μL from Row H. Diluted Escherichia coli Top10 (Invitrogen, Carlsbad CA), Staphylococcus aureus ATCC 19636 or Candida albicans SC5134 cells (100 μL, […]) were added to all wells of the plate. Initial (t=0) and final (t=16 h, 37° C.) absorbance readings were taken at 650 nm.

[7] = chemical and physical properties tables

## C=C(C)[C@H]1CC=C(C)CC1 [Limonene]
[1]; limonene:YP ratio of 3:1, both types of YPs
  loading efficiency: high efficiency

## OC(Cc1ccccc1Cl)(Cn1nc[nH]c1=S)C1(Cl)CC1 (stereo not drawn) [prothioconazole]
[2]; Table 21
  Solubility Water: 22.5 µg/mL (≈ 0.0654 mM)
[1]; PRO:YP ratios up to 3:1, three loading cycles, acetone
  encapsulation efficiency: more than 83%
[3]
  water/octanol partition coefficient (log P): 4.05
[4]; DMSO
  Solubility DMSO: 126000 µg/mL (≈ 366 mM)
[4]; acetone
  Solubility Acetone: 444000 µg/mL (≈ 1290 mM)
[4]; ethyl acetate
  Solubility Ethyl acetate: 220000 µg/mL (≈ 639 mM)

## CCCCCc1cc(O)c2c(c1)OC(C)(C)[C@@H]1CCC(C)=C[C@@H]21 [Tetrahydrocannabinol (THC), Tetrahydrocannabinol, reference compound]
[2]; Table 1
  Maximum solubility in water: 2.8 µg/mL
[2]; [7]
  Solubility in Water: 2.8 µg/mL (≈ 0.0089 mM)
[1]; THC:YP ratio of up to 5:1
  loading efficiency: high efficiency
[3]; Table 1
  Log P: 5.9
[3]
  water/octanol partition coefficient (log P): 5.9

## C=C(C)[C@@H]1CCC(C)=C[C@H]1c1c(O)cc(CCCCC)cc1O [CBD, cannabidiol]
[5]; DMSO, organic solvent or mixture
  solubility: 200000 µg/mL (≈ 636 mM)
[5]; GET424, organic solvent or mixture
  solubility: 10000 µg/mL (≈ 31.8 mM)
[5]; ethanol
  CBD Solubility Ethanol: Miscible at 1:1 weight ratio*
[5]; methanol
  CBD Solubility Methanol: Miscible at 1:1 weight ratio*
[5]; octanoic acid
  CBD Solubility Octanoic Acid (OA): Miscible at 0.5:1 CBD:OA ratio
[1]; 3:1 (CBD+OA):GLP ratio, OA leave-in solvent
  encapsulation efficiency: high encapsulation efficiency
[1]; CBD:YP weight ratios up to 5:1, multiple loading cycles, GLPs
  encapsulation efficiency: high encapsulation efficiency

## CC(C)=CCC/C(C)=C/CO [Geraniol]
S. cerevisiae
  growth of S. cerevisiae strains: inhibit the growth
C. albicans
  growth of C. albicans strains: inhibit the growth
[2]; Table 1
  Maximum solubility in water: 686 µg/mL
[2]; Table 2
  Solubility in Water: 686 µg/mL (≈ 4.45 mM)
[2]; terpenes in the GET composition
  Maximum solubility in water: 686 µg/mL
H. pylori
  in vitro growth of H. pylori: inhibited
[3]; water/octanol, Table 2
  Log P: 3.56

## Clomazone
[1]; clomazone:YP w/w ratios up to 5:1, no solvent
  clomazone located inside YPs: 96-100%
[3]; Table 1
  Log P: 2.5
[3]
  water/octanol partition coefficient (log P): 2.5

## CC(C)CC(C)c1sccc1NC(=O)c1cn(C)nc1C(F)(F)F (stereo not drawn) [PTP, Penthiopyrad]
[6]; DMDA leave-in solvent, PTP:DMDA:YP 1:1:1
  PTP release from YPs: improved release at 0.1 and 0.01 mg PTP/mL
[6]; GET424 leave-in solvent, PTP:GET:YP 1:1:1
  PTP release from YPs: improved release at 0.01 mg PTP/mL
[6]; without a leave-in solvent, PTP:YP 1:1
  PTP release from YPs: released from YPs only at a concentration above maximum solubility in water
physchem
  solubility: 200000 µg/mL (≈ 556 mM)

## OC(Cn1cncn1)(Cn1cncn1)c1ccc(F)cc1F [Fluconazole]
Candida albicans SC5134
  fold lower concentration than YP GET to reach MIC 75%: 10 fold

## CC(C)N(C(=O)SCC(Cl)=C(Cl)Cl)C(C)C [Triallate]
[6]; dilution to 0.001 mg/mL, triallate:YP 3:1 and 4:1
  release of triallate from the YP: ~100%
[1]; triallate:YP w/w ratios up to 4:1, no solvent
  triallate located inside YPs: 94 -100%

## CC1(C)C(/C=C(\Cl)C(F)(F)F)[C@H]1C(=O)O[C@H](C#N)c1cccc(Oc2ccccc2)c1 (stereo partly drawn) [Lambda cyhalotrin]
[6]; dilution to 0.001 mg λCy/mL, λCy:YP 1:1, 3 hours room temperature
  λCy release from YPs: over 80%
[2]; Table 1
  Maximum solubility in water: 0.005 µg/mL
[2]; [7]
  Solubility in Water: 2.8 µg/mL (≈ 0.00622 mM)
[1]; λCy:YP ratios up to 5:1, no solvent
  payload encapsulation: 77-90%
[3]; Table 1
  Log P: 7.0
[3]
  water/octanol partition coefficient (log P): 7.0
